Biological target: T1, RXRα:PPARγ heterodimer (Homo sapiens, UniProt P19793)
T1 construct: expressed in transfected cells; host or cells: CV-1 cells
T1 sequence (P19793 1-462): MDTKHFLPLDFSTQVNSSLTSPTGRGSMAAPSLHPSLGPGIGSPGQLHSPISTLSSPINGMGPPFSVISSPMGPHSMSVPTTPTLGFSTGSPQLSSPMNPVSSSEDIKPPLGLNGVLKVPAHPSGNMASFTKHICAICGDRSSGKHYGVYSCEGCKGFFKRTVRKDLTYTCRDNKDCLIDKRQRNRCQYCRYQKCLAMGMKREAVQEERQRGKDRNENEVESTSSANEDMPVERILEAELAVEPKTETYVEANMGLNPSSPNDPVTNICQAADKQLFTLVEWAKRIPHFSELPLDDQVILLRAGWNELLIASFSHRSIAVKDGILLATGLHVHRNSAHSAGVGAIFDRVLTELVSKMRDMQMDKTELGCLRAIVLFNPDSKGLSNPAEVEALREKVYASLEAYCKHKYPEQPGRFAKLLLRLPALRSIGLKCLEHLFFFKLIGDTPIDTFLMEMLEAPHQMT
T1 sequence (P37231 1-505 partner): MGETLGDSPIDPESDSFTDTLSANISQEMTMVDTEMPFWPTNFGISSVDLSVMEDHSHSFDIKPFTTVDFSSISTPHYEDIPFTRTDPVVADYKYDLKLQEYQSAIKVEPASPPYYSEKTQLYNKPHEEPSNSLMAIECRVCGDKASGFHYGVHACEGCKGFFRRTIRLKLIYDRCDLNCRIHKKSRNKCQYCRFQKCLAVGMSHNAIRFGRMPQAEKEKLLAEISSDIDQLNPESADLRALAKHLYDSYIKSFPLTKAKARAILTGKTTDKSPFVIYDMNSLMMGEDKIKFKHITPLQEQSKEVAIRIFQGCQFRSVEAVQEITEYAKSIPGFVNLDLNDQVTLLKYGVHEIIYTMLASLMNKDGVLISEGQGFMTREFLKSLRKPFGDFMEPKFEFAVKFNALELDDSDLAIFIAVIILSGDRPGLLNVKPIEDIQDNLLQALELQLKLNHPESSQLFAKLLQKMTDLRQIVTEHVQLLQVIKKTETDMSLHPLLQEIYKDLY
Assay: RXR:PPARγ heterodimer cotransfection assay in CV-1 cells
Type: cell-based
Details: for Synergy Efficacy (%): maximal response in presence of 100 nM BRL49653 relative to response of BRL49653 alone; for Agonist Efficacy (%): maximal response relative to response of the thiazolidinedione BRL49653
Text: In the co-transfection assay, cloned cDNA for one or more IRs (e.g., human RARα, RXRα, or PPARγ), alone or in combination (i.e. for heterodimer assays) under the control of a constitutive promoter (e.g., the SV 40, RSV or CMV promoter) is introduced by transfection (a procedure to introduce exogenous genes into cells) into a background cell substantially devoid of endogenous IRs. These introduced gene(s) direct the recipient cells to make the IR protein(s) of interest. A further gene is also introduced (co-transfected) into the same cells in conjunction with the IR gene(s). This further gene, comprising the cDNA for a reporter protein, such as firefly luciferase (LUC), controlled by an appropriate hormone responsive promoter containing a hormone response element (HRE). This reporter plasmid functions as a reporter for the transcriptional-modulating activity of the target IR(s). Thus, the reporter acts as a surrogate for the products (mRNA then protein) normally expressed by a gene under control of the target receptor(s) and their native hormone(s).
The compounds of the present invention were further tested for activity on RXR heterodimers with RARα, RARγ or PPARγ utilizing the cotransfection assay in CV-1 cells as described in Example 6A. The RXR:RAR heterodimer cotransfection assays utilized the following expression plasmids and reporter plasmid: pRShRARα (10 ng/well, Giguere et al., Nature, 330:624 (1987) the disclosure of which is herein incorporated by reference) or pRShRARγ (10 ng/well, Ishikawa et al., Mol. Endocrin., 4:837 (1990) the disclosure of which is herein incorporated by reference) with Δ-MTV-LUC (50 ng/well, Hollenberg and Evans, Cell, 55:899 (1988), the disclosure of which is herein incorporated by reference) containing an RARE which is referred to as two copies of the TRE-palindromic response element described in Umesono et al., Nature, 336:262 (1988), the disclosure of which is herein incorporated by reference. For the RSR:PPARγ heterodimer cotransfection assay, the RXRα receptor expression plasmid, pRShRXRα (10 ng/well), was cotrasfected with the PPARγ expression plasmid, pCMVhPPARγ (10 ng/well), and a reporter plasmid containing three copies of a PPARγ response element (pPREA3-tk-LUC, 50 ng/well; Mukherjee et al., Journ. Biol. Chem., 272:8071-8076 (1997) and references cited therein, the disclosures of which are herein incorporated by reference).
Cotransfections were performed as described in Example 6A. […] Antagonist efficacy and IC50 values were determined as in Example 6A.
Compounds of the present invention were also tested for the ability to synergize with an RAR or PPARγ agonist in the context of an RXR heterodimer. For these assays the compounds were added to the cells with a fixed concentration of TTNPB (1×10^−9 M) for RXR:RAR heterodimer assay or BRL 49633 (1×10^−7 M) for the RXR:PPARγ heterodimer assay. Efficacy of the compounds of the present invention in the agonist and synergy assays was calculated as the maximum response obtained over the range of the dose response curve relative to the maximum response obtained by the reference agonist. Antagonist efficacy was determined as a function (%) of maximal inhibition.
Kliewer et al., Nature 358:771-774 (1992). To examine the effects of the compounds of the present invention on the transcriptional properties of the RXR:PPARγ, a heterodimer cotransfection assay as described above was employed.

| SMILES | Synergy Efficacy (%) | Agonist Efficacy (%) | RXR:PPARγ agonist activity alone (in words) (alone) | RXR:PPARγ activity in combination with the PPARγ ligand (in words) (in combination with the PPARγ ligand) |
| --- | --- | --- | --- | --- |
| CCOc1c(\C(C)=C/C=C/C(C)=C/C(=O)O)cc(C(C)C)nc1C(C)C [Example 3, 7-(2,6-Diisopropyl-3-ethoxy-pyridin-4-yl)-3-methyl-octa-2(E),4(E),6(Z)-trienoic acid] | 182% | 42% |  |  |
| CCCCOc1c(\C(C)=C/C=C/C(C)=C/C(=O)O)cc(C(C)C)nc1C(C)C [Example 1, 7-(3-Butoxy-2,6-diisopropyl-pyridin-4-yl)-3-methyl-octa-2(E),4(E),6(Z)-trienoic Acid] | 25% | 11% | partial agonists | stronger activity |
| CCCOc1c(\C(C)=C/C=C/C(C)=C/C(=O)O)cc(C(C)C)nc1C(C)C [Example 2, 7-(2,6-Diisopropyl-3-propoxy-pyridin-4-yl)-3-methyl-octa-2(E),4(E),6(Z)-trienoic Acid] | 150% | 32% |  |  |
| C/C(=C/C=C/C(C)=C/C(=O)O)c1cc(C(C)C)nc(C(C)C)c1OCC(F)F [Example 4, 7-[3-(2,2-Difluoro-ethoxy)-2,6-diisopropyl-pyridin-4-yl]-3-methyl-octa-2(E),4(E),6(Z)-trienoic acid] | 233% | 53% |  |  |
| C/C(=C/C=C/C(C)=C/C(=O)O)c1cc(C(C)C)nc(C(C)C)c1OCC(F)(F)F [Example 5, 7-[2,6-Diisopropyl-3-(2,2,2-trifluoro-ethoxy)-pyridin-4-yl]-3-methyl-octa-2(E),4(E),6(Z)-trienoic acid] | 107% | 55% |  |  |
